# From ChEMBL document CHEMBL3112480, “γ-Alkylidene-γ-lactones and isobutylpyrrol-2(5H)-ones analogues to rubrolides as inhibitors of biofilm formation by gram-positive and gram-negative bacteria” (Bioorg Med Chem Lett, 2014)
# Columns and labels:
# Pseudomonas aeruginosa [1] = assay: Antibacterial activity against Pseudomonas aeruginosa ATCC 27853 assessed as effect on planktonic growth at 43.8 ug/ml after 20 hrs relative to control; type: functional
# Staphylococcus aureus [2] = assay: Antibacterial activity against Staphylococcus aureus ATCC 25923 assessed as effect on planktonic growth at 1.37 ug/ml after 20 hrs relative to control; type: functional
# [3] = system: Staphylococcus epidermidis; assay: Antibacterial activity against Staphylococcus epidermidis ATCC 35547 assessed as effect on planktonic growth at 0.68 ug/ml after 20 hrs relative to control; type: functional
# Pseudomonas aeruginosa [4] = assay: Antibacterial activity against Pseudomonas aeruginosa ATCC 27853 assessed as effect on planktonic growth at 0.68 ug/ml after 20 hrs relative to control; type: functional
# [5] = system: Staphylococcus epidermidis; assay: Antibacterial activity against Staphylococcus epidermidis ATCC 35547 assessed as effect on planktonic growth at 0.34 ug/ml after 20 hrs relative to control; type: functional
# Pseudomonas aeruginosa [6] = assay: Antibacterial activity against Pseudomonas aeruginosa ATCC 27853 assessed as effect on planktonic growth at 10.9 ug/ml after 20 hrs relative to control; type: functional
# Pseudomonas aeruginosa [7] = assay: Antibacterial activity against Pseudomonas aeruginosa ATCC 27853 assessed as effect on planktonic growth at 0.17 ug/ml after 20 hrs relative to control; type: functional
# Staphylococcus aureus [8] = assay: Antibacterial activity against Staphylococcus aureus ATCC 25923 assessed as effect on planktonic growth at 5.5 ug/ml after 20 hrs relative to control; type: functional
# [9] = system: Staphylococcus epidermidis; assay: Antibacterial activity against Staphylococcus epidermidis ATCC 35547 assessed as effect on planktonic growth at 1.37 ug/ml after 20 hrs relative to control; type: functional
# Staphylococcus aureus [10] = assay: Antibacterial activity against Staphylococcus aureus ATCC 25923 assessed as effect on planktonic growth at 0.17 ug/ml after 20 hrs relative to control; type: functional
# Pseudomonas aeruginosa [11] = assay: Antibacterial activity against Pseudomonas aeruginosa ATCC 27853 assessed as effect on planktonic growth at 5.5 ug/ml after 20 hrs relative to control; type: functional
# Staphylococcus aureus [12] = assay: Antibacterial activity against Staphylococcus aureus ATCC 25923 assessed as effect on planktonic growth at 43.8 ug/ml after 20 hrs relative to control; type: functional
# Streptococcus mutans [13] = assay: Antibacterial activity against Streptococcus mutans ATCC 25175 assessed as effect on planktonic growth at 1.37 ug/ml after 20 hrs relative to control; type: functional
# Staphylococcus aureus [14] = assay: Antibacterial activity against Staphylococcus aureus ATCC 25923 assessed as effect on planktonic growth at 10.9 ug/ml after 20 hrs relative to control; type: functional
# Pseudomonas aeruginosa [15] = assay: Antibacterial activity against Pseudomonas aeruginosa ATCC 27853 assessed as inhibition of biofilm formation after 20 hrs by crystal-violet staining method; type: functional, organism-based
# [16] = system: Staphylococcus epidermidis; assay: Antibacterial activity against Staphylococcus epidermidis ATCC 35547 assessed as effect on planktonic growth at 2.73 ug/ml after 20 hrs relative to control; type: functional
# [17] = system: Staphylococcus epidermidis; assay: Antibacterial activity against Staphylococcus epidermidis ATCC 35547 assessed as effect on planktonic growth at 87.5 ug/ml after 20 hrs relative to control; type: functional
# Pseudomonas aeruginosa [18] = assay: Antibacterial activity against Pseudomonas aeruginosa ATCC 27853 assessed as effect on planktonic growth at 2.73 ug/ml after 20 hrs relative to control; type: functional
# Streptococcus mutans [19] = assay: Antibacterial activity against Streptococcus mutans ATCC 25175 assessed as effect on planktonic growth at 10.9 ug/ml after 20 hrs relative to control; type: functional
# [20] = system: Staphylococcus epidermidis; assay: Antibacterial activity against Staphylococcus epidermidis ATCC 35547 assessed as inhibition of biofilm formation after 20 hrs by crystal-violet staining method; type: functional, organism-based; conditions: for IC50: ATCC 35547, 20 h
# Staphylococcus aureus [21] = assay: Antibacterial activity against Staphylococcus aureus ATCC 25923 assessed as effect on planktonic growth at 87.5 ug/ml after 20 hrs relative to control; type: functional
# [22] = system: Staphylococcus epidermidis; assay: Antibacterial activity against Staphylococcus epidermidis ATCC 35547 assessed as effect on planktonic growth at 21.9 ug/ml after 20 hrs relative to control; type: functional
# Staphylococcus aureus [23] = assay: Antibacterial activity against Staphylococcus aureus ATCC 25923 assessed as effect on planktonic growth at 21.9 ug/ml after 20 hrs relative to control; type: functional
# Pseudomonas aeruginosa [24] = assay: Antibacterial activity against Pseudomonas aeruginosa ATCC 27853 assessed as effect on planktonic growth at 0.34 ug/ml after 20 hrs relative to control; type: functional
# Pseudomonas aeruginosa [25] = assay: Antibacterial activity against Pseudomonas aeruginosa ATCC 27853 assessed as effect on planktonic growth at 21.9 ug/ml after 20 hrs relative to control; type: functional
# [26] = system: Staphylococcus epidermidis; assay: Antibacterial activity against Staphylococcus epidermidis ATCC 35547 assessed as effect on planktonic growth at 43.8 ug/ml after 20 hrs relative to control; type: functional
# Streptococcus mutans [27] = assay: Antibacterial activity against Streptococcus mutans ATCC 25175 assessed as effect on planktonic growth at 0.17 ug/ml after 20 hrs relative to control; type: functional
# Staphylococcus aureus [28] = assay: Antibacterial activity against Staphylococcus aureus ATCC 25923 assessed as effect on planktonic growth at 0.68 ug/ml after 20 hrs relative to control; type: functional
# Staphylococcus aureus [29] = assay: Antibacterial activity against Staphylococcus aureus ATCC 25923 assessed as effect on planktonic growth at 2.73 ug/ml after 20 hrs relative to control; type: functional
# Streptococcus mutans [30] = assay: Antibacterial activity against Streptococcus mutans ATCC 25175 assessed as effect on planktonic growth at 2.73 ug/ml after 20 hrs relative to control; type: functional
# Pseudomonas aeruginosa [31] = assay: Antibacterial activity against Pseudomonas aeruginosa ATCC 27853 assessed as effect on planktonic growth at 1.37 ug/ml after 20 hrs relative to control; type: functional
# Staphylococcus aureus [32] = assay: Antibacterial activity against Staphylococcus aureus ATCC 25923 assessed as effect on planktonic growth at 0.34 ug/ml after 20 hrs relative to control; type: functional
# Pseudomonas aeruginosa [33] = assay: Antibacterial activity against Pseudomonas aeruginosa ATCC 27853 assessed as effect on planktonic growth at 87.5 ug/ml after 20 hrs relative to control; type: functional
# Streptococcus mutans [34] = assay: Antibacterial activity against Streptococcus mutans ATCC 25175 assessed as effect on planktonic growth at 5.5 ug/ml after 20 hrs relative to control; type: functional
# Streptococcus mutans [35] = assay: Antibacterial activity against Streptococcus mutans ATCC 25175 assessed as effect on planktonic growth at 0.34 ug/ml after 20 hrs relative to control; type: functional
# [36] = system: Staphylococcus epidermidis; assay: Antibacterial activity against Staphylococcus epidermidis ATCC 35547 assessed as effect on planktonic growth at 5.5 ug/ml after 20 hrs relative to control; type: functional
# Streptococcus mutans [37] = assay: Antibacterial activity against Streptococcus mutans ATCC 25175 assessed as effect on planktonic growth at 43.8 ug/ml after 20 hrs relative to control; type: functional
# Streptococcus mutans [38] = assay: Antibacterial activity against Streptococcus mutans ATCC 25175 assessed as effect on planktonic growth at 0.68 ug/ml after 20 hrs relative to control; type: functional
# [39] = system: Staphylococcus epidermidis; assay: Antibacterial activity against Staphylococcus epidermidis ATCC 35547 assessed as effect on planktonic growth at 10.9 ug/ml after 20 hrs relative to control; type: functional
# [40] = system: Staphylococcus epidermidis; assay: Antibacterial activity against Staphylococcus epidermidis ATCC 35547 assessed as effect on planktonic growth at 0.17 ug/ml after 20 hrs relative to control; type: functional
# Streptococcus mutans [41] = assay: Antibacterial activity against Streptococcus mutans ATCC 25175 assessed as effect on planktonic growth at 87.5 ug/ml after 20 hrs relative to control; type: functional
# Streptococcus mutans [42] = assay: Antibacterial activity against Streptococcus mutans ATCC 25175 assessed as effect on planktonic growth at 21.9 ug/ml after 20 hrs relative to control; type: functional
compound,measurement,setting,value
COc1ccc(Cl)cc1C1=C(Br)C(=O)N(CC(C)C)/C1=C\c1ccccc1Br,Activity,Pseudomonas aeruginosa [1],-6.6%
same,Activity,Staphylococcus aureus [2],12.4%
same,Activity,[3],-5.2%
same,Activity,Pseudomonas aeruginosa [4],-0.1%
same,Activity,[5],-0.2%
same,Activity,Pseudomonas aeruginosa [6],-11.5%
same,Activity,Pseudomonas aeruginosa [7],-2.5%
same,Activity,Staphylococcus aureus [8],2.5%
same,Activity,[9],-3.8%
same,Activity,Staphylococcus aureus [10],11.2%
same,Activity,Pseudomonas aeruginosa [11],-5.5%
same,Activity,Staphylococcus aureus [12],23.6%
same,Activity,Streptococcus mutans [13],8.5%
same,Activity,Staphylococcus aureus [14],-1.2%
same,inhibition,Pseudomonas aeruginosa [15],Dose-dependent effect
same,IC50,"Pseudomonas aeruginosa [15]; ATCC 27853, 20 h",0.7 µg/mL
same,Activity,[16],-6%
same,Activity,[17],6.9%
same,Activity,Pseudomonas aeruginosa [18],-3.1%
same,Activity,Streptococcus mutans [19],-3.3%
same,inhibition,[20],Dose-dependent effect
same,IC50,[20],> 87.5 µg/mL
same,Activity,Staphylococcus aureus [21],48%
same,Activity,[22],2.1%
same,Activity,Staphylococcus aureus [23],7.5%
same,Activity,Pseudomonas aeruginosa [24],-4%
same,Activity,Pseudomonas aeruginosa [25],-9.6%
same,Activity,[26],13.5%
same,Activity,Streptococcus mutans [27],12.4%
same,Activity,Staphylococcus aureus [28],12.2%
same,Activity,Staphylococcus aureus [29],2.7%
same,Activity,Streptococcus mutans [30],9.6%
same,Activity,Pseudomonas aeruginosa [31],0.4%
same,Activity,Staphylococcus aureus [32],17.2%
same,Activity,Pseudomonas aeruginosa [33],10%
same,Activity,Streptococcus mutans [34],-1.6%
same,Activity,Streptococcus mutans [35],10.4%
same,Activity,[36],-5.7%
same,Activity,Streptococcus mutans [37],7.4%
same,Activity,Streptococcus mutans [38],11%
same,Activity,[39],-3.2%
same,Activity,[40],-2.5%
same,Activity,Streptococcus mutans [41],23.4%
same,Activity,Streptococcus mutans [42],10.4%
COc1ccc(Br)cc1C1=C(Br)C(=O)N(CC(C)C)C1(O)Cc1cccc(Cl)c1 (configuration not stated),Activity,Pseudomonas aeruginosa [1],4.3%
same,Activity,Staphylococcus aureus [2],-2%
same,Activity,[3],23.2%
same,Activity,Pseudomonas aeruginosa [4],-9%
same,Activity,[5],34.1%
same,Activity,Pseudomonas aeruginosa [6],3.2%
same,Activity,Pseudomonas aeruginosa [7],-7.3%
same,Activity,Staphylococcus aureus [8],16.6%
same,Activity,[9],22.8%
same,Activity,Staphylococcus aureus [10],-4.6%
same,Activity,Pseudomonas aeruginosa [11],-3.1%
same,Activity,Staphylococcus aureus [12],30.3%
same,Activity,Streptococcus mutans [13],12.1%
same,Activity,Staphylococcus aureus [14],4.2%
same,inhibition,Pseudomonas aeruginosa [15],Dose-dependent effect
same,Activity,[16],20.9%
same,Activity,[17],38.2%
same,Activity,Pseudomonas aeruginosa [18],0.1%
same,Activity,Streptococcus mutans [19],6.6%
same,inhibition,[20],Dose-dependent effect
same,IC50,[20],> 87.5 µg/mL
same,Activity,Staphylococcus aureus [21],35.1%
same,Activity,[22],30.2%
same,Activity,Staphylococcus aureus [23],23.8%
same,Activity,Pseudomonas aeruginosa [24],-5.4%
same,Activity,Pseudomonas aeruginosa [25],1.4%
same,Activity,[26],35.9%
same,Activity,Streptococcus mutans [27],1.1%
same,Activity,Staphylococcus aureus [28],3.1%
same,Activity,Staphylococcus aureus [29],0.6%
same,Activity,Streptococcus mutans [30],7%
same,Activity,Pseudomonas aeruginosa [31],-6.6%
same,Activity,Staphylococcus aureus [32],6.1%
same,Activity,Pseudomonas aeruginosa [33],3.3%
same,Activity,Streptococcus mutans [34],9.6%
same,Activity,Streptococcus mutans [35],5.5%
same,Activity,[36],24.3%
same,Activity,Streptococcus mutans [37],16.9%
same,Activity,Streptococcus mutans [38],10.3%
same,Activity,[39],25.8%
same,Activity,[40],17.5%
same,Activity,Streptococcus mutans [41],26.1%
same,Activity,Streptococcus mutans [42],15.4%
